The values that follow are results of earlier work, collected in US9446032B2, “Methods for treating cardiovascular disorders” (WOCKHARDT LIMITED, priority 2011, dated 2016).

The conditions of data set [1]: incomplete owing to extensive first pass metabolism.

Structures are written as SMILES.

Consider `CCOC(=O)C1=C(COCCN)NC(C)=C(C(=O)OC)C1c1ccccc1Cl` (stereo not shown) [Amlodipine besylate], for which, where the note is “ethanol”, the solubility in ethanol result is given as “sparingly soluble”. In addition, the solubility in water entry (water) is given as “slightly soluble”.

Take `COCCc1ccc(OCC(O)CNC(C)C)cc1` (stereo not shown) [Metoprolol]: the “solubility (BCS)” value is on record as “highly soluble”. Also, the bioavailability result in data set [1] is recorded as “about 50%”.
